{"source": "patent US8685966B2", "about": "“GRP94 inhibitors” (University of Kansas, priority 2011, dated 2014)", "key": {"[1]": {"test_system": "HeLa cells", "assay": "HeLa cell survival (XTT assay), GRP94-sufficient or -deficient cells", "assay_type": "cell-based", "details": "Homo sapiens, 48 hrs, regardless of presence of GRP94, read-out: IC50 for HeLa cell viability", "description": "GRP94 and BiP were detected by the anti-KDEL antibody. *, an unknown KDEL-containing band. […] Cell survival was measured by XTT assay (n=4).\nSimilar results were obtained with other cell lines (e.g. C2C12 in FIG. 6)."}, "[2]": {"test_system": "BiP expression", "assay": "Induction of BiP expression (immunoblot)", "assay_type": "cell-based"}, "[3]": {"test_system": "cytosolic Hsp90 (Hsp90α and Hsp90β)", "assay": "Western blot of Hsp90α/β client proteins (Raf, Akt) in HEK293 cell lysates", "assay_type": "cell-based, human", "details": "for concentration at which Hsp90α/β client proteins (Raf, Akt) are degraded/affected: HEK293, Western blot", "description": "As previously mentioned, it has been shown that Grp94 is not essential for tissue culture cell viability.^28 In contrast, loss of functional Hsp90α or Hsp90β results in cell death. […]. […] To support these findings, western blot analyses of Hsp90α/β client proteins were performed from HEK293 cell lysates. […].\nBriefly, HEK293 cells were plated in 6-well plates and treated with various concentrations of drug, GDA in DMSO (1% DMSO final concentration), or vehicle (DMSO) for 24 h. Cells were harvested in cold PBS and lysed in mammalian protein extraction reagent (MPER, Pierce) and protease inhibitors (Roche) on ice for 1 h. Lysates were clarified at 14,000 g for 10 min at 4° C. Protein concentrations were determined with the Pierce BCA assay kit per the manufacturer's instructions. Equal amounts of protein (10 μg) were electrophoresed under reducing conditions, transferred to a PVDF membrane, and immunoblotted with the corresponding specific antibodies. Membranes were incubated with an appropriate horseradish peroxidase-labeled secondary anti-body, developed with chemiluminescent substrate, and visualized."}, "[4]": {"test_system": "IGF-II secretion", "assay": "IGF-II secretion by serum-starved C2C12 cells (ELISA)", "assay_type": "cell-based, mouse", "details": "10 μM", "description": "IGF-II is a second well-defined Grp94-dependent client protein and active Grp94 is required for the secretion of IGF-11 (Ostrovsky et al., 2009).\nFor IGF-II ELISA, plates were coated with anti-IGF-II (MAb 792, R&D Systems) and incubated with the test cell media. The bound IGF-II was detected with a biotinylated anti-IGF-II antibody (BAF792, R&D Systems) and developed with streptavidin-HRP (R&D Systems) according to the manufacturer's recommended procedure. Optical density units were converted to concentrations of the growth factor with a standard curve generated with recombinant IGF-II (792-MG) (R&D Systems). Data were acquired in duplicate on a microtiter-plate reader (Dynatech Laboratories, Chantilly, Va.) at 450 nm."}, "[5]": {"test_system": "Drosophila larvae (w1118)", "assay": "Drosophila larval growth on supplemented fly food", "assay_type": "in vivo", "description": "In the absence of zygotic expression of Gp93, however, larvae display a pronounced growth defect, commensurate with disrupted gut epithelial morphology, decreased gut nutrient uptake, and marked aberrations in copper cell structure and function. As a consequence, loss of Gp93 expression is larval lethal in Drosophila. […]. […] In parallel experiments, larval gut tissue was obtained from each of the feeding conditions and gut epithelial morphology evaluated by fluorescence microscopy. […] Pharmacokinetic studies of compound absorption and metabolism may provide addition insights into this partial phenotypic behavior.\nCompound effects on Drosophila larval growth were examined as described in 26. […]"}, "[6]": {"test_system": "National Cancer Institute 60-cell panel (NCI-60)", "assay": "NCI 60-cell panel cytotoxicity profile", "assay_type": "cell-based", "description": "This should not dampen excitement for selective Grp94 inhibitors, as numerous studies have shown 3-dimensional tumor response to be drastically different from cell culture responses. Requisite studies are underway to understand the effect of Grp94 inhibition on 3-dimensional tumor models."}, "[7]": {"test_system": "cytosolic Hsp90", "assay": "Akt stability in the BiP induction experiment (immunoblot)", "assay_type": "cell-based", "details": "same concentrations as BiP induction", "description": "NIH-3T3 cells were treated with 25 μM of 17-AAG (AAG), 10 μM of RDC or 0-50 μM of 2. After 18 hrs cells were harvested for SDS-PAGE and analyzed by immunoblotting. Grp94, BiP and PDIA6 were detected with the monoclonal anti-KDEL antibody, AKT by rabbit anti-serum. 14-3-3 served as loading control. Numbers below BiP, Grp94, and AKT bands are the relative expression levels, determined by densitometry.\nInhibition of Hsp90 is also known to induce expression of Hsp70 and this response is useful as a diagnostic tool (FIG. 11).^61-62 A parallel response exists when Grp94 expression is ablated by RNAi, or when its activity is inhibited by RDC or 17-AAG: a transcriptional response is initiated that leads to upregulation of expression of BiP, the ER member of the Hsp70 family (Eletto et al., submitted). We therefore assessed the ability of 2 to cause BiP up-regulation, in comparison to pan-Hsp90 inhibitors. […] However, at these concentrations, the compound also destabilized Akt, a hallmark of inhibition of cytosolic Hsp90 (FIG. 12)."}, "[8]": {"test_system": "C2C12 cells", "assay": "C2C12 cell viability (XTT assay)", "details": "same treatment as IGF-II assay", "protocol": "The viability of cells treated as in A was measured at each of the indicated concentrations by the XTT assay.\nC2C12 cells (ATCC, Rockville, Md.) were induced to differentiate either by complete withdrawal of serum or by shifting to medium supplemented with 2% house serum. […] Cell growth was measured with the XTT formazan colorimetric assay (Roche), cells were grown in 3% serum, to limit the background of the assay."}, "[9]": {"target": "Grp94 (Canis lupus familiaris, UniProt P41148)", "sequence (P41148 22-804)": "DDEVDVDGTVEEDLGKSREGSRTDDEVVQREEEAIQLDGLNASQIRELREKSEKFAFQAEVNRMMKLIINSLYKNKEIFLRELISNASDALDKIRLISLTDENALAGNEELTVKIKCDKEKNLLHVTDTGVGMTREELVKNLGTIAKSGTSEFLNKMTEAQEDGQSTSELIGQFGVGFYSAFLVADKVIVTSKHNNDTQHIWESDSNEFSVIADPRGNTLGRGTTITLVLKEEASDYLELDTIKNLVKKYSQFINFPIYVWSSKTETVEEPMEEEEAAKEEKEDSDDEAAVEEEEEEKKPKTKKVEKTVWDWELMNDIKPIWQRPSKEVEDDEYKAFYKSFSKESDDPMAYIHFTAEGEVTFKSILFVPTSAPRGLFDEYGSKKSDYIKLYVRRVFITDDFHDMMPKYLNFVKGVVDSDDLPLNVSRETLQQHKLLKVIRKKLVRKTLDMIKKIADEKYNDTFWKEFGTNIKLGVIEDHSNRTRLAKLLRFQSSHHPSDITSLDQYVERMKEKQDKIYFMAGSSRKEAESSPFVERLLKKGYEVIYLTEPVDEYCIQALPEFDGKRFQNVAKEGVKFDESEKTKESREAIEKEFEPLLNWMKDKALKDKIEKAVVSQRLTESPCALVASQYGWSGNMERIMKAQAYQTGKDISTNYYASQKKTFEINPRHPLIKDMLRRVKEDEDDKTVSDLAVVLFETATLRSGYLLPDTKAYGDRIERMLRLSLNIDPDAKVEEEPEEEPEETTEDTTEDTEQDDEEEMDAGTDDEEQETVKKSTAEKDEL", "assay": "Binding affinity by fluorescent quenching, Grp94"}, "[10]": {"target": "yHsp82 (yeast homolog of Hsp90β) (Saccharomyces cerevisiae, UniProt P02829)", "sequence (P02829 whole entry)": "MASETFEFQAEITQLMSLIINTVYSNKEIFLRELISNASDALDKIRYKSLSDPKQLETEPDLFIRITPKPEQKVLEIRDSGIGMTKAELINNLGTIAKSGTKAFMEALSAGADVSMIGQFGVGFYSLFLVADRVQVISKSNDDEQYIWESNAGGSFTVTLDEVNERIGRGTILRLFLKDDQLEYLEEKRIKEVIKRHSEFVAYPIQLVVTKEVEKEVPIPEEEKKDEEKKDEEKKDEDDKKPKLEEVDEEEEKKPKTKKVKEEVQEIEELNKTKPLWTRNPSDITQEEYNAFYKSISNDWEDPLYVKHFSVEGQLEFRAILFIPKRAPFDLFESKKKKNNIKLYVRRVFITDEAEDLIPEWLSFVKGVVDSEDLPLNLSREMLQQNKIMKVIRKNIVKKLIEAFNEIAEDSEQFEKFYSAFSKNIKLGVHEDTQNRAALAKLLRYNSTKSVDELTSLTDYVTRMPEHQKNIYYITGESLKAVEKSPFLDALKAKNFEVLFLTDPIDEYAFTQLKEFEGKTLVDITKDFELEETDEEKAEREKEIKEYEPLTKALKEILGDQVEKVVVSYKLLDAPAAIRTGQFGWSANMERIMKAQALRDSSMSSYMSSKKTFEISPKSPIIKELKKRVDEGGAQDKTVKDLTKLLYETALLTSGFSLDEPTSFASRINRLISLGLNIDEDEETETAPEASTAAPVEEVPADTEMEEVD", "assay": "Binding affinity by fluorescent quenching, yHsp82", "details": "read-out: Kd value for yHsp82 (yeast homolog of Hsp90β), FIG. 1B"}, "[11]": {"target": "T1, Grp94 (Homo sapiens, UniProt P14625)", "T1 construct": "endogenous in cells; host or cells: HEK293 (transfected only with pcDNA6B-Toll-Flag, the read-out client)", "T1 sequence (P14625 22-803)": "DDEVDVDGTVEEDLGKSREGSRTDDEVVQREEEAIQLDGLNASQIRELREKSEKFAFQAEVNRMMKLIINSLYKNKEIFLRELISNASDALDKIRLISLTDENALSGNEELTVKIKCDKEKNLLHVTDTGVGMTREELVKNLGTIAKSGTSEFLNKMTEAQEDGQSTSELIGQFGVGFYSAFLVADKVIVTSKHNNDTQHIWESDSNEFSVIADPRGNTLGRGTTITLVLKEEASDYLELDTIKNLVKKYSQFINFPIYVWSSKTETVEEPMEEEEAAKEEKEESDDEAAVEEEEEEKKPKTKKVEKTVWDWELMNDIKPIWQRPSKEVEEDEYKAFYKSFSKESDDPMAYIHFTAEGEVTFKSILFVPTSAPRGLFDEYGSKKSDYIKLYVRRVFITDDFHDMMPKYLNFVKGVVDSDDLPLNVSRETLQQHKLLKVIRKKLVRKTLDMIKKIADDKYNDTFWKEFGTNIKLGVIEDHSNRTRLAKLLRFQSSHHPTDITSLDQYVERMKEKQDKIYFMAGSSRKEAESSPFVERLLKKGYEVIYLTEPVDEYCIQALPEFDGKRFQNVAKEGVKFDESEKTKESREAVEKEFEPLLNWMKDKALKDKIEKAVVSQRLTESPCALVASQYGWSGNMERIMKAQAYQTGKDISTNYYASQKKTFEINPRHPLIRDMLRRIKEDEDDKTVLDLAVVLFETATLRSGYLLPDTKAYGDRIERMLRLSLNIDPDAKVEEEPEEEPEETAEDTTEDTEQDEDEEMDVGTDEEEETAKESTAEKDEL", "assay": "Toll trafficking assay in Toll-transfected HEK293 cells", "assay_type": "cell-based", "details": "Toll presentation inhibition versus Western blot of Hsp90-dependent client proteins"}, "[12]": {"test_system": "MCF7 (ER+) breast cancer cells", "assay": "Anti-proliferative activity, MCF7", "assay_type": "cell-based, human", "details": "said to be mimicked by the client degradation value; read-out: observed IC50 in MCF7", "description": "(§1) As previously mentioned, it has been shown that Grp94 is not essential for tissue culture cell viability.^28 In contrast, loss of functional Hsp90α or Hsp90β results in cell death. Therefore, we investigated the anti-proliferative effects of compounds 1-5 against two breast cancer cells, MCF7 (ER+) and SKBR3 (Her2 overexpressing, ER—), and against the non-transformed HEK293 cells. […] To support these findings, western blot analyses of Hsp90α/β client proteins were performed from HEK293 cell lysates."}, "[13]": {"test_system": "SKBR3 (Her2 overexpressing, ER—) breast cancer cells", "assay": "Anti-proliferative activity, SKBR3", "assay_type": "cell-based, human", "details": "said to be mimicked by the client degradation value; read-out: observed IC50 in SkBR3", "description": "as §1"}, "[14]": {"test_system": "IGF-II secretion", "details": "serum-starved C2C12 myoblast cells; cited from earlier work"}, "[15]": {"details": "read-out: Kd value for Grp94, fluorescent quenching, FIG. 1B"}, "[16]": {"details": "read-out: kd for binding to the Hsp90 isoform GRP94"}}, "note": "Entries after “also recorded” stand apart in the source; their conditions may differ. Like-named read-outs stand apart in the source and are kept apart here."}
{"compound": "C[C@@H]1C[C@H]2O[C@@H]2/C=C\\C=C\\C(=O)Cc2c(Cl)c(O)cc(O)c2C(=O)O1", "note": "[RDC, radicicol]", "values": [{"measurement": "IC50", "setting": "[1]", "value": 8, "unit": "µM"}, {"measurement": "BiP up-regulation", "setting": "[2]; 10 μM", "value": "did cause BiP up-regulation"}]}
{"compound": "COC(=O)c1c(O)cc(O)c(Cl)c1CCc1nccn1Cc1ccccc1", "note": "[Compound 2, Methyl 2-(2-(1-benzyl-1H-imidazol-2-yl)ethyl)-3-chloro-4,6-dihydroxybenzoate]", "values": [{"measurement": "HSP70 induction", "setting": "[3]; HEK293, 100 μM", "value": "induction of HSP70"}, {"measurement": "concentration at which Hsp90α/β client proteins (Raf, Akt) are degraded/affected", "setting": "[3]", "value": 100, "unit": "µM"}, {"measurement": "reduction of IGF-II secretion", "setting": "[4]", "value": "Approximately 60%"}, {"measurement": "BiP up-regulation", "setting": "[2]; 0-75 μM, C2C12 cells", "value": "did not lead to up-regulation of BiP"}, {"measurement": "concentration inducing BiP expression", "setting": "[2]; resembles RDC", "value": "above 200 μM"}, {"measurement": "Drosophila larval growth", "setting": "[5]; 250 μg/ml to 1 mg/ml in fly food, 96 hours", "value": "dramatic growth phenotype; also recorded: stunted the growth of Drosophila larvae in a dose-dependent manner"}, {"measurement": "larval gut copper cell structure", "setting": "[5]; fluorescence microscopy of gut tissue, data not shown", "value": "No grossly discernible effects on copper cell structure"}, {"measurement": "cytotoxicity across all 60 transformed cell lines", "setting": "[6]", "value": "negligible cytotoxicity"}, {"measurement": "concentration at which Akt is destabilized", "setting": "[7]", "value": "above 200 μM"}, {"measurement": "effect on cell viability", "setting": "[8]", "value": "little effect on cell viability"}]}
{"compound": "COC(=O)c1c(O)cc(O)c(Cl)c1CCC(=O)NC1=CC(=O)C(OC)=CC1=O", "note": "[Radamide]", "values": [{"measurement": "fold higher binding affinity for full-length Grp94 than yHsp82", "setting": "[9]; full-length Grp94 vs yHsp82", "value": "approximately 2 fold"}, {"measurement": "Kd", "setting": "[9]; [15]", "value": "0.52 ± 0.13", "unit": "µM"}, {"measurement": "Kd", "setting": "[9]; [16]", "value": 0.254, "unit": "µM"}, {"measurement": "Kd", "setting": "[10]", "value": "0.87 ± 0.14", "unit": "µM"}]}
{"compound": "cis-radamide [cRDA]", "values": [{"measurement": "selectivity for GRP94 versus cytoplasmic Hsp90 α/β", "setting": "[11]", "value": "minimal selectivity"}, {"measurement": "concentration at which Hsp90α/β client proteins (Raf, Akt) are degraded/affected", "setting": "[3]", "value": "~1", "unit": "µM"}, {"measurement": "IC50", "setting": "[12]", "value": "~1", "unit": "µM"}, {"measurement": "IC50", "setting": "[13]", "value": "~1", "unit": "µM"}, {"measurement": "Kd", "setting": "[9]; [15]", "value": "0.11 ± 0.02", "unit": "µM"}, {"measurement": "Kd", "setting": "[9]; [16]", "value": 0.11, "unit": "µM"}, {"measurement": "Kd", "setting": "[10]", "value": "0.24 ± 0.12", "unit": "µM"}]}
{"compound": "C=CCNC1=C2C[C@@H](C)C[C@H](OC)[C@H](O)[C@@H](C)/C=C(\\C)[C@H](OC(N)=O)[C@@H](OC)/C=C\\C=C(/C)C(=O)NC(=CC1=O)C2=O", "note": "[Compound 17-AAG, 17-(allylamino)-17-demethoxygeldanamycin]", "values": [{"measurement": "BiP up-regulation", "setting": "[2]; 25 μM, data not shown", "value": "did cause BiP up-regulation"}, {"measurement": "secretion of IGF-II (previously demonstrated)", "setting": "[14]", "value": "prevent the secretion of IGF-II"}]}
